Paper doi:10.1101/2021.06.16.448769v1 (bioRxiv, 2021)
Blank lines part the entries; values can stand above or below the compound they belong to. Bridge positions count the residues as written; N and C are the ends. Ends that are not written are not given here. Peptide text beside a SMILES is read from it. * marks the point of attachment. Palmitoyl = CCCCCCCCCCCCCCCC(=O)*

Assays:
human C5 = human C5 (Homo sapiens, UniProt P01031); assay: SPR multi-cycle kinetics, binding to human C5
[1] = system: C5 activation (C5b-6), alternative pathway; assay: Alternative pathway; assay type: biochemical
[2] = system: C5 activation (C5b-6), classical pathway; assay: Classical pathway; assay type: biochemical
[3] = Plasma stability, rat plasma; assay type: in vitro ADME; settings: plasma (lithium heparin)
[4] = Plasma stability, mouse plasma; assay type: in vitro ADME; settings: plasma (lithium heparin)
[5] = Plasma stability, human plasma; assay type: in vitro ADME; settings: plasma (lithium heparin)
[6] = Plasma pharmacokinetics after intravenous bolus; assay type: in vivo, Sprague Dawley rats; settings: male, Sprague-Dawley, rat
rat C5 protein = rat C5 protein (Rattus norvegicus, UniProt P08650); assay: SPR single-cycle kinetics, binding to rat C5
Chain of rat C5 protein (P08650 19-1681): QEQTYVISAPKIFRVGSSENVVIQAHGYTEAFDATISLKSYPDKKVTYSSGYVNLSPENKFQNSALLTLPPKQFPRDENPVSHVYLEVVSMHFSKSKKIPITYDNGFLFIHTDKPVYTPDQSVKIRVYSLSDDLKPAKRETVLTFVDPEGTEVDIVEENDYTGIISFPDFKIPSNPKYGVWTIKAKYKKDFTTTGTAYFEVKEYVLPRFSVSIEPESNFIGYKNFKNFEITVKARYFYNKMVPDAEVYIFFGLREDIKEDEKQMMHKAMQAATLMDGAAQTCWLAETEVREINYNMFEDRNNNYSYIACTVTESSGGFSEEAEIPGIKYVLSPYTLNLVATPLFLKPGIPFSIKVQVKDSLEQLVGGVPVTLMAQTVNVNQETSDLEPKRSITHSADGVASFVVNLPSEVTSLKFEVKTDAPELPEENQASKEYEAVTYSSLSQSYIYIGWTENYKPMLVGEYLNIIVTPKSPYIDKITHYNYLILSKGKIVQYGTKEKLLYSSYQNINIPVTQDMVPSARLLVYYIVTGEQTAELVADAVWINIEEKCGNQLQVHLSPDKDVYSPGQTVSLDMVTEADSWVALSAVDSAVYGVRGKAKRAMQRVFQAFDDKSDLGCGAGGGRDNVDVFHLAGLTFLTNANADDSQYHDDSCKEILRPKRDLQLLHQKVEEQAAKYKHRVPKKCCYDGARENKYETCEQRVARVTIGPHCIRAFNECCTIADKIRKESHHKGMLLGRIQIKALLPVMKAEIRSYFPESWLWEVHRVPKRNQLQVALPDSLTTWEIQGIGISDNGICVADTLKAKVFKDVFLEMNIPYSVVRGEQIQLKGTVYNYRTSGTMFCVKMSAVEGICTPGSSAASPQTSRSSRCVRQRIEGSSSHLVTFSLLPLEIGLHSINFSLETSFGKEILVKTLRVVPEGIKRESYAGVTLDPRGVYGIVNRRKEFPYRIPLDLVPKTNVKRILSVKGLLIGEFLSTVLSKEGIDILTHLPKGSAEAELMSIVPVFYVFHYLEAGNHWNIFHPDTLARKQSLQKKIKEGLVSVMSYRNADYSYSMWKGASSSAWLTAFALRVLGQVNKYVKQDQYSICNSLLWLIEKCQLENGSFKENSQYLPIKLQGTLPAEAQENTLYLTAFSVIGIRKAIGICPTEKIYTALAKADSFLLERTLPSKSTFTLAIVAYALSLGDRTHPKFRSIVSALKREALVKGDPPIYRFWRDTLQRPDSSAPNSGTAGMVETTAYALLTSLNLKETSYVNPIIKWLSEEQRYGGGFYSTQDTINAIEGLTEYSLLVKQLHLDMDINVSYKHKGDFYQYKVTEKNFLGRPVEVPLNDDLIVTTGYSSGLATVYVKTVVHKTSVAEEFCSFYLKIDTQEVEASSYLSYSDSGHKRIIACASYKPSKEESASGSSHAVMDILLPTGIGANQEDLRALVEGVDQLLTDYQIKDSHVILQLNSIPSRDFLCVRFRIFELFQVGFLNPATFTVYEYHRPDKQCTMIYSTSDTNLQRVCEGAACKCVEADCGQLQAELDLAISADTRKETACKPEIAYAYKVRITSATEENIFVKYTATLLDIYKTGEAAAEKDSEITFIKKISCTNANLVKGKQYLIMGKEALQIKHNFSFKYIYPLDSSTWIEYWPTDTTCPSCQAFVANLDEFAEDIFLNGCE

Solubility = assay type: physicochemical; settings: reason for lower in vivo dose of 1 mg/kg

Chain of human C5 (P01031 19-673 limits assumed): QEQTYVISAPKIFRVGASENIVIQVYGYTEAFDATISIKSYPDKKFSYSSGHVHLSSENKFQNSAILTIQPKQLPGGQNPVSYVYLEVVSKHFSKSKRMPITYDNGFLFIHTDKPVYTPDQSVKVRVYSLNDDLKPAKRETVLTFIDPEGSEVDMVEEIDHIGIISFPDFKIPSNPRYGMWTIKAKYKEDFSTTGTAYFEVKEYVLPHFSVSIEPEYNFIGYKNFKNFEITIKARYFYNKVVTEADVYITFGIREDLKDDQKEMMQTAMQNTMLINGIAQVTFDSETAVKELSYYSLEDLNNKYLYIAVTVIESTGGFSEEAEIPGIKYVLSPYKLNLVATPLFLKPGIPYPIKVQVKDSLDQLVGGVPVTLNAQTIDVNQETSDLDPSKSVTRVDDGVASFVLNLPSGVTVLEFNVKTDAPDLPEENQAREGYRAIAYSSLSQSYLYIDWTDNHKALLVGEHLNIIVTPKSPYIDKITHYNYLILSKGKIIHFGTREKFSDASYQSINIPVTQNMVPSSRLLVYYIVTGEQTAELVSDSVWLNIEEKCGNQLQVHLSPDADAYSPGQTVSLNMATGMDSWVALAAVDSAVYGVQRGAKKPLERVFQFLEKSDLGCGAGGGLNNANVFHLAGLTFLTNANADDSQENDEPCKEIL
Chain of human C5 (P01031 678-1676 limits assumed): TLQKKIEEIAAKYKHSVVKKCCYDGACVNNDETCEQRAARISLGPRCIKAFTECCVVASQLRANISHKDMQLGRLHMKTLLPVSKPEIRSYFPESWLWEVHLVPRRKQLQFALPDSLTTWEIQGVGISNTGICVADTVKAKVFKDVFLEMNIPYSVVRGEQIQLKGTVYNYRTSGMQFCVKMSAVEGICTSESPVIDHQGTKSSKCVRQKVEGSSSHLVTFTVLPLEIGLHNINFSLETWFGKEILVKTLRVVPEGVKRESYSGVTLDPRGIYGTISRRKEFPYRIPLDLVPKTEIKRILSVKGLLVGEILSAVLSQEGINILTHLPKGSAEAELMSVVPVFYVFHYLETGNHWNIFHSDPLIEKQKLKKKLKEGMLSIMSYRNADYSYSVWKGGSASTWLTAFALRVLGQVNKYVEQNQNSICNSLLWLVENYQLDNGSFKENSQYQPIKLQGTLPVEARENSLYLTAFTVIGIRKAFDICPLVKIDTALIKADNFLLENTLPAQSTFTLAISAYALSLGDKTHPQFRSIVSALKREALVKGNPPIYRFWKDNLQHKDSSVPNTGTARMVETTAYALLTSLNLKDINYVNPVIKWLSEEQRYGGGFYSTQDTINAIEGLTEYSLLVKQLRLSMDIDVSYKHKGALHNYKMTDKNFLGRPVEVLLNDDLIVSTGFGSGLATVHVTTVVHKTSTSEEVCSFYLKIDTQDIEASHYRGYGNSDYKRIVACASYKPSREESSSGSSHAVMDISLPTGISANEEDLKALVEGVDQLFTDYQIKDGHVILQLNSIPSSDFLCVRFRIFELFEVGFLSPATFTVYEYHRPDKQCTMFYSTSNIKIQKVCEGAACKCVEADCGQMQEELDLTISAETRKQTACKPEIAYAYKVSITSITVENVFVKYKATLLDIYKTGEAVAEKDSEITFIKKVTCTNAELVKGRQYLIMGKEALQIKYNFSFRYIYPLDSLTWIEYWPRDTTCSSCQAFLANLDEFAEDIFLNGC

Kd (human C5; mean KD, SPR multi-cycle kinetics, mean of n=3): 0.41 nM
Compound: CC[C@H](C)[C@@H]1NC(=O)[C@H](C)NC(=O)[C@H](C(C)C)NC(=O)CNC(=O)[C@@H]2CSSC[C@@H](C(=O)NCC(=O)N[C@@H](Cc3c[nH]cn3)C(=O)N[C@@H](Cc3ccccc3)C(=O)N[C@@H](CC(C)C)C(=O)N[C@@H](CC(N)=O)C(=O)N[C@@H](CO)C(=O)NCC(=O)N3CCC[C@H]3C(=O)N[C@@H](CC(N)=O)C(=O)N[C@H](C(=O)N[C@@H](CO)C(=O)N3CCC[C@H]3C(=O)N[C@@H](Cc3ccc(O)cc3)C(=O)N[C@H](C(=O)N[C@@H](CO)C(=O)N[C@H](C(=O)O)[C@@H](C)O)C(C)C)[C@@H](C)CC)NC(=O)CNC(=O)[C@H](Cc3c[nH]c4ccccc34)NC(=O)[C@H](CCCNC(=N)N)NC(=O)CNC(=O)[C@H](CSSC[C@H](NC(=O)[C@@H](N)[C@@H](C)O)C(=O)N3CCC[C@H]3C(=O)N[C@@H](CCC(=O)O)C(=O)NCC(=O)N[C@@H](Cc3c[nH]c4ccccc34)C(=O)N[C@@H](CO)C(=O)N[C@@H](CCC(=O)O)C(=O)N2)NC(=O)[C@H](CCC(=O)O)NC(=O)[C@H](Cc2ccc(O)cc2)NC(=O)CNC(=O)[C@H](Cc2ccc(O)cc2)NC1=O [K92chemFE] (H-TCPEGWSECGVAIYGYECGRWGCGHFLNSGPNISPYVST-OH; disulfide 2-18, 9-23; N-terminus assumed)
Alternative pathway ELISA Emax ([1]; Figure 6 data, n=3 replicates): 27% | effect in CP ELISA (in words) [2]: no effect

remaining at 24 h, 6.25 µg/mL [3]: 56% | remaining at 24 h, 6.25 µg/mL [4]: 22% | remaining at 24 h, 6.25 µg/mL [5]: 76% | clearance ([6]; 10 mg/kg): 10.6 mL/min/kg | half-life ([6]; 10 mg/kg): 17 min | cross reactivity with rat C5 (in words) (rat C5 protein): specific for human C5
Compound: GCPPGYKSGVDCSPGSECKWGCYAVDGRRYGGYGADSGVGS-OH (disulfide 2-18, 12-22 (inferred)) [K57chemFE]

binding to C5 (in words) (human C5; peptide after reduction and capping of cysteines with iodoacetamide (IAM)): entirely abrogated binding
Compound: CSCC[C@@H]1NC(=O)[C@@H]2CCCN2C(=O)[C@@H](NC(=O)[C@@H]2CSSC[C@H](NC(=O)[C@@H](N)CO)C(=O)N3CCC[C@H]3C(=O)N[C@@H](CC(=O)O)C(=O)NCC(=O)N[C@@H](Cc3ccccc3)C(=O)N[C@@H](CO)C(=O)N[C@@H](Cc3ccc(O)cc3)C(=O)N[C@@H](CCCNC(=N)N)C(=O)N[C@@H](CO)C(=O)N[C@@H](Cc3c[nH]c4ccccc34)C(=O)N[C@@H](CC(=O)O)C(=O)N[C@@H](CC(=O)O)C(=O)N[C@@H](Cc3ccccc3)C(=O)N2)CSSC[C@@H](C(=O)N[C@@H](CC(C)C)C(=O)N[C@@H](C)C(=O)N2CCC[C@H]2C(=O)N[C@@H](CCCNC(=N)N)C(=O)N[C@@H](CC(N)=O)C(=O)O)NC(=O)[C@H](CCCNC(=N)N)NC(=O)CNC(=O)[C@H](C(C)C)NC1=O [K149chemFE] (H-SCPDGFSYRSWDDFCCPMVGRCLAPRN-OH; disulfide 2-15, 16-22 (inferred); N-terminus assumed)
effect in AP ELISA (in words) [1]: non-functional, silent binder of C5 | effect in CP ELISA (in words) [2]: non-functional, silent binder of C5

fold reduction in affinity for C5 relative to parent (human C5; SPR, relative to unmodified parent peptide): four-fold reduction | clearance ([6]; 1 mg/kg): 0.8 mL/min/kg | half-life ([6]; 1 mg/kg): 96 min | solubility (in words) (Solubility): poor solubility
Compound: Palmitoyl-GSSSGCPPGYKSGVDCSPGSECKWGCYAVDGRRYGGYGADSGVGS-OH (disulfide 6-22, 16-26 (inferred)) [K57chemFE-palmitoyl]
